Numbered stars: 1 amine (or outer) side, 2 acyl side, 3 side chain; on linkers, the order of the positions; unused ones are H or OH. Square brackets hold non-standard residues; d marks the D form. Peptide text beside a SMILES is read from it. β3hPhg = O=C(C[C@@H](N[*:1])c1ccccc1)[*:2]; Phg = N[C@H](C(=O)O)c1ccccc1
Columns and labels:
Neprilysin = Neprilysin (Homo sapiens, UniProt P08473); assay: Inhibition of human recombinant NEP ectopeptidase activity using Abz-dRGL-(EDDnp) as substrate preincubated for 10 mins with substrate by fluorimetric analysis
Aminopeptidase N = Aminopeptidase N (Homo sapiens, UniProt P15144); assay: Inhibition of human recombinant AP-N ectopeptidase activity using alanine-MCA as substrate preincubated for 10 mins with substrate by fluorimetric analysis
Chain of Aminopeptidase N (P15144 whole entry): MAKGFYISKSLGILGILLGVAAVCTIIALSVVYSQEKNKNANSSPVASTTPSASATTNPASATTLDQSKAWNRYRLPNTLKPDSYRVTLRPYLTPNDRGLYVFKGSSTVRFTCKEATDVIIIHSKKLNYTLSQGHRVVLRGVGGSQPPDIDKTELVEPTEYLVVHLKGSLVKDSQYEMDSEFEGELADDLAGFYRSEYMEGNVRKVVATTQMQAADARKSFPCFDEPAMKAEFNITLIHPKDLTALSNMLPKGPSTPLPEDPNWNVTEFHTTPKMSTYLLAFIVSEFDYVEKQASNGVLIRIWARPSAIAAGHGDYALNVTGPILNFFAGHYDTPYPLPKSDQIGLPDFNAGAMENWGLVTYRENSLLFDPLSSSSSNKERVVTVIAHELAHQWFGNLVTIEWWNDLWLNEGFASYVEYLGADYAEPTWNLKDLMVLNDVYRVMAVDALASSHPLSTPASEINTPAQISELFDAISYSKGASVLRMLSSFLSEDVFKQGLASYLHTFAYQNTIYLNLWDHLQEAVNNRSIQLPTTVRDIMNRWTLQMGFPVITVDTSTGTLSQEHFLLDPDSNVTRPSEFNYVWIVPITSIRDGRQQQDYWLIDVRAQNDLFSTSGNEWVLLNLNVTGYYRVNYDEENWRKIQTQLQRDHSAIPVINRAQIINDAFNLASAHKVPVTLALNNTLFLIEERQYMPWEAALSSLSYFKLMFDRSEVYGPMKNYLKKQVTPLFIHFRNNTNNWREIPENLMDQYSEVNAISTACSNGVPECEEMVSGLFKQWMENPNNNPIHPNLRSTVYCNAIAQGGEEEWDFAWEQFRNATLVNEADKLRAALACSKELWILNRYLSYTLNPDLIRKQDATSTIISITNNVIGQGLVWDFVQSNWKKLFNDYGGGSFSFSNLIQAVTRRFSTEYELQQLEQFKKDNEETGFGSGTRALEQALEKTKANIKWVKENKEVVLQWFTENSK

Chain of Neprilysin (P08473 whole entry): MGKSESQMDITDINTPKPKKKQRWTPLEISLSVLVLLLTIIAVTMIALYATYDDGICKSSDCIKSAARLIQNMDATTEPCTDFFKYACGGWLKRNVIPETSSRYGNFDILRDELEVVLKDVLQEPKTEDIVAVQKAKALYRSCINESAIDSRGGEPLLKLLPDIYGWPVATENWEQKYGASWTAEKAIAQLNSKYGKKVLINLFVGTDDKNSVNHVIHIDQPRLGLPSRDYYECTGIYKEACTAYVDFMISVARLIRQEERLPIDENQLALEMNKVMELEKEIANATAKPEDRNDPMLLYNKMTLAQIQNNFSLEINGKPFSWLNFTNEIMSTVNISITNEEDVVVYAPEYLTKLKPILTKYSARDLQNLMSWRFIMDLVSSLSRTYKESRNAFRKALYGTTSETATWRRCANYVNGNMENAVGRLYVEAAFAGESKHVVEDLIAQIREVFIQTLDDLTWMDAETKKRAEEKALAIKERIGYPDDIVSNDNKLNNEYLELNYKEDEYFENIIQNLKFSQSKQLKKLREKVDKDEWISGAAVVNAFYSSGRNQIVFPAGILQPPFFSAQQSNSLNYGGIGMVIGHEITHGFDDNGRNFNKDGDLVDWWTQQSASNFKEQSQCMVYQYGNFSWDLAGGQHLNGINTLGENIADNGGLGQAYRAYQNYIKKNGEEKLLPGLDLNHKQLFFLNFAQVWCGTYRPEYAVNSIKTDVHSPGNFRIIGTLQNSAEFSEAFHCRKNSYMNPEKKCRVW

| Molecule | IC50 (Neprilysin) [µM] | IC50 (Aminopeptidase N) [µM] |
| --- | --- | --- |
| N=C(N)NCCC[C@H](NC(=O)[C@H](CO)NC(=O)[C@@H](NC(=O)[C@H](CCCNC(=N)N)NC(=O)[C@@H](N)CCC(N)=O)c1ccccc1)C(=O)O (H-QR[Phg]SR-OH) | > 100 |  |
| NC(=O)CC[C@H](N)C(=O)N[C@@H](CCCN=C(N)N)C(=O)N[C@H](CC(=O)N[C@@H](CO)C(=O)N[C@@H](CCCN=C(N)N)C(=O)O)c1ccccc1 (H-QR[β3hPhg]SR-OH) | > 100 | > 70 |
| H-ARFSR-OH | > 70 |  |
| H-QRASR-OH | > 100 | > 70 |
| H-QRFSA-OH |  | > 70 |

Reference: ChEMBL document CHEMBL2021861, “Structure-activity relationship study of opiorphin, a human dual ectopeptidase inhibitor with antinociceptive properties” (J Med Chem, 2012)
